Data reported in patent publication US10308659B2, “Pyridine derivatives” (Hoffmann-La Roche Inc., priority 2013, dated 2019).

Legend:
human CB2 receptors = human CB2 receptors (Homo sapiens (Human), UniProt P34972); assay: cAMP assay, CHO cells expressing human CB2 receptors; type: cell-based; settings: functional cAMP assay, CHO cells expressing human CB2; read-out: EC50 CB2 human
In short: (§1)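 Transfected CHO cells were preincubated in Krebs Ringer bicarbonate buffer with 1 mM IBMX for 30 min at 30 °C, then exposed to compound for 30 min at 30 °C. cAMP was measured by time-resolved FRET (730/645 nm) against a standard curve spanning 10 μM to 0.13 nM. EC50 values derived from concentration–response data.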

human CB1 receptors = human CB1 receptors (Homo sapiens (Human), UniProt P21554); assay: cAMP assay, CHO cells expressing human CB1 receptors; type: cell-based; settings: functional cAMP assay, CHO cells expressing human CB1; read-out: EC50 CB1 human
Chain of human CB1 receptors (P21554 whole entry): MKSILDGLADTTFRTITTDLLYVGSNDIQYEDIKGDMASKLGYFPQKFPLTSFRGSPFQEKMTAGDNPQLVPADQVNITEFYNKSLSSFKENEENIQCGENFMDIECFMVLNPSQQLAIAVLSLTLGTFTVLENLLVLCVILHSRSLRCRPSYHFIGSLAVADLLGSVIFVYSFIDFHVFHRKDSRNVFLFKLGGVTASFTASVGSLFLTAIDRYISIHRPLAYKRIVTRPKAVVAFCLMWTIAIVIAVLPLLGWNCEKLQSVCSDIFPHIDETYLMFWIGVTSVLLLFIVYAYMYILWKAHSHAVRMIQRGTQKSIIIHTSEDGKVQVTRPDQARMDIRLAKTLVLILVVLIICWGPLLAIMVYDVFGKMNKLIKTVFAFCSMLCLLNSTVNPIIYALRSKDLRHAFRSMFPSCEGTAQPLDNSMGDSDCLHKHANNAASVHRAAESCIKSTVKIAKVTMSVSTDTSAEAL
In short: as §1

Chain of human CB2 receptors (P34972 whole entry): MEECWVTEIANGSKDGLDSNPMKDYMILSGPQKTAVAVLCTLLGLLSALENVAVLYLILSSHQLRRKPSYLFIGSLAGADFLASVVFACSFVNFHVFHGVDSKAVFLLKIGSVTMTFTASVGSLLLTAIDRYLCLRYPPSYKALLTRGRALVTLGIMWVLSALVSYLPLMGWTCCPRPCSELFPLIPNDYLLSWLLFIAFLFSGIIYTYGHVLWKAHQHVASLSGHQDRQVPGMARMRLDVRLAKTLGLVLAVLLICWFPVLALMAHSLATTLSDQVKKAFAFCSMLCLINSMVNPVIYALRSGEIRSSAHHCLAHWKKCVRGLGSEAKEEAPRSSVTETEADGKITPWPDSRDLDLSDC

Row | SMILES | EC50 (human CB2 receptors) [nM] | EC50 (human CB1 receptors) [nM]
1 | C[C@H](Oc1cc(-c2noc(C3CC3)n2)ncc1C1CC1)C(F)(F)F [Example 91, 5-cyclopropyl-3-[5-cyclopropyl-4-[(2S)-1,1,1-trifluoropropan-2-yl]oxypyridin-2-yl]-1,2,4-oxadiazole] | 641 | > 10000
2 | OC1(c2nc(-c3cc(OCC(F)(F)F)c(N4CC(F)(F)C4)cn3)no2)CC1 [Example 46, 1-[3-[5-(3,3-difluoroazetidin-1-yl)-4-(2,2,2-trifluoroethoxy)pyridin-2-yl]-1,2,4-oxadiazol-5-yl]cyclopropan-1-ol] | 180 | > 10000
3 | FC(F)(F)COc1cc(-c2nc(C(F)(F)F)no2)ncc1C1CC1 [Example 8, 5-[5-cyclopropyl-4-(2,2,2-trifluoroethoxy)pyridin-2-yl]-3-(trifluoromethyl)-1,2,4-oxadiazole] | 21.3 | > 10000
4 | CCC1COC(c2cc(OCC3CC3)c(C3CC3)cn2)=N1 (centres unmarked) [Example 21, 2-[5-cyclopropyl-4-(cyclopropylmethoxy)pyridin-2-yl]-4-ethyl-4,5-dihydro-1,3-oxazole] | 70 | > 10000
